Data taken from ChEMBL document CHEMBL4840341, “Voatriafricanines A and B, Trimeric Vobasine-Aspidosperma-Aspidosperma Alkaloids from Voacanga africana” (J Nat Prod, 2021).
Values after ≈ are worked out from the molar mass of the structure shown.

Experiments:
Format in all cases: functional
[1] = system: Mycolicibacterium smegmatis; experiment: Antimycobacterial activity against Mycobacterium smegmatis CIP7326 assessed as inhibition of mycobacterial growth incubated for 24 hrs by broth microdilution method
[2] = Antimycobacterial activity against Mycobacterium abscessus subsp. bolletii assessed as inhibition of mycobacterial growth incubated for 2 to 3 days by broth microdilution method; conditions: Mycobacteroides abscessus; time 2-3 day
Pseudomonas aeruginosa = experiment: Antibacterial activity against Pseudomonas aeruginosa ATCC 15442 assessed as inhibition of bacterial growth incubated for 24 hrs by broth microdilution method

**Q.** For `CO[C@H]1/C=C/O[C@@]2(C)Oc3c(C)c(O)c4c(O)c(c(/C=N/N5CCN(C)CC5)c(O)c4c3C2=O)NC(=O)/C(C)=C\C=C\[C@H](C)[C@H](O)[C@@H](C)[C@@H](O)[C@@H](C)[C@H](OC(C)=O)[C@@H]1C` [RIFAMPIN], which MIC [1] is on record?
**A.** 0.1 µg/mL (≈ 0.122 µM)

**Q.** What about the MIC [2] of the same compound?
**A.** 0.1 µg/mL (≈ 0.122 µM)

**Q.** With cetrimide as the compound, how does the MIC (Pseudomonas aeruginosa) read?
**A.** 0.1 µg/mL
